What was measured:
[1] = tested on: microbe spectrum of a microbially contaminated slurry; experiment: quantitative test of microbial count reduction in a microbially contaminated slurry; type: cell-based; set-up: unit not given here; details: PCC slurry
Method: Here, the quantitative test was carried out to determine how rapidly (1 hour to 7 days) the stated amounts of active substance reduce the microbial count of a microbially contaminated slurry.

[2] = cited from earlier work
[3] = tested on: microbially contaminated (alkaline) slurry; details: cited from earlier work

Which results are given for OCOCCOCO [EDDM, (ethylenedioxy)dimethanol]?
microbial count ([1]; 100 ppm EDDM, 1 hour): 1.6 * 10^5; microbial count ([1]; 100 ppm EDDM, 2 hours): 1.7 * 10^5; microbial count ([1]; 100 ppm EDDM, 3 hours): 1.6 * 10^5; microbial count ([1]; 100 ppm EDDM, 24 hours): 3.4 * 10^4; microbial count ([1]; 100 ppm EDDM, 3 days): 3.3 * 10^4; microbial count ([1]; 100 ppm EDDM, 7 days): 5.6 * 10^3; microbial count ([1]; 200 ppm EDDM, 1 hour): 1.6 * 10^5; microbial count ([1]; 200 ppm EDDM, 2 hours): 1.1 * 10^5; microbial count ([1]; 200 ppm EDDM, 3 hours): 1.2 * 10^5; microbial count ([1]; 200 ppm EDDM, 24 hours): 2.9 * 10^4; microbial count ([1]; 200 ppm EDDM, 3 days): 2.3 * 10^4; microbial count ([1]; 200 ppm EDDM, 7 days): 1.7 * 10^3; decline in active substance at elevated temperatures ([2]; 50-80° C., over a period of a few days, alkaline pH): no significant decline

With O=CCCCC=O [GDA, glutaraldehyde] as the molecule, how does the “time to sanitize a microbially contaminated (alkaline) slurry” value [3] read?
Its value is 1 to 4 h.

And the microbial count ([1]; 10 ppm GDA, 1 hour)?
Its microbial count is 1.2 * 10^5.

And the microbial count ([1]; 10 ppm GDA, 2 hours)?
The microbial count was 1.3 * 10^4.

What about the microbial count ([1]; 10 ppm GDA, 3 hours) of the same molecule?
Its microbial count is 2.6 * 10^3.

What about the microbial count ([1]; 10 ppm GDA, 24 hours) of the same molecule?
Its microbial count is <100.

And the microbial count ([1]; 10 ppm GDA, 3 days)?
Its microbial count is 4.7 * 10^2.

What about the microbial count ([1]; 10 ppm GDA, 7 days) of the same molecule?
Its microbial count is 3.5 * 10^5.

What about the microbial count ([1]; 20 ppm GDA, 1 hour) of the same molecule?
Its microbial count is 2.2 * 10^3.

And the microbial count ([1]; 20 ppm GDA, 2 hours)?
Its microbial count is 3.0 * 10^2.

What about the microbial count ([1]; 20 ppm GDA, 3 hours) of the same molecule?
Its microbial count is <100.

And the microbial count ([1]; 20 ppm GDA, 24 hours)?
Its microbial count is <100.

And the microbial count ([1]; 20 ppm GDA, 3 days)?
Its microbial count is <100.

What about the microbial count ([1]; 20 ppm GDA, 7 days) of the same molecule?
Its microbial count is 1.7 * 10^3.

What about the “degradation of active substance in the slurry” value ([2]; in the slurry after a few days) of the same molecule?
The value was “completely degraded”.
